From patent publication US8383595B2, “Peptide derivative and composition for promoting tear secretion comprising the same” (Kinki University, priority 2008, dated 2013)
Where no end group is shown, it is not given here.

Experiments:
rat lacrimal secretion [1] = assay: Rat lacrimal fluid secretion in vivo (Schirmer test paper); conditions: male Wistar rat; for lacrimal secretion promoting action compared with Ser-Leu-Ile-Gly-Arg-Leu-NH2 and Ile-Gly-Arg-Leu-NH2: six minutes after administration (FIGS. 2, 4); for lacrimal secretion promoting action: peptide 5 μmol/kg i.v. one minute after amastatin 2.5 μmol/kg i.v., six minutes after administration (FIGS. 1, 3)
Procedure: An amount of lacrimal secretion which is an indication for determining an effect of promoting lacrimal secretion can be measured according to a known method such as by Iga et al. (Iga, Y. et al., Jpn. J. Pharmacol., 78, 373-80, 1998) using a rat. In particular, a rat is anesthetized with pentobarbital (50 mg/kg, intra-abdominal administration), and a paper with 2 mm width for testing the human lacrimal secretion function, the Schirmer test paper (Showa Yakuhin Kako Co., Ltd.) is inserted into a lower eyelid of the rat. After a fixed period of time has passed, the test paper is removed, and a length of the wetted portion of the test paper is measured using a caliper square. If a statistically significant increase of lacrimal secretion is observed when a test substance is administered, it can be said that the substance has the lacrimal secretion promoting action.
Male Wistar rat at 6 weeks of age was used in experiments. Each animal was housed for one week under the environment of room temperature of 23±2° C., a humidity of 50±5% and a 12 hours light/dark cycle (light: 07:00-19:00) and, thereafter, it was subjected to experiments. During the housing and experiment period, the animal was fed a solid chaw and water ad lib.
An amount of rat lacrimal fluid secretion was measured according to the method of Iga et al. (Iga, Y. et al., Jpn. J. Pharmacol., 78, 373-80, 1998). That is, the rat was anesthetized with pentobarbital (50 mg/kg, intraabdominal administration), and a paper with 2 mm width for testing human lacrimal secretion function, the Schirmer test paper (Showa Yakuhin Kako Co., Ltd.) was inserted into a lower eyelid of the rat. After the period of time fixed has passed, the test paper was removed, and a length of a wetted portion of the test paper was measured using a caliper square to define an indicator of lacrimal secretion. An amount of lacrimal fluid was measured at 1, 2, 4 and 6 minutes after administration of the peptides.
In addition, the results are shown in the mean (mm)±standard error, and the test of significance was performed according to a Tukey's multiple comparison test.
A physiological salt solution of amastatin (2.5 μmol/kg), which is an aminopeptidase inhibitor, was intravenously administrated to the rat, and after one minute, a physiological salt solution of various peptide derivatives (5 μmol/kg) was intravenously administrated. Measurements were initiated immediately after administration of the peptides.
As a control, an amount of lacrimal secretion was also measured in the case where the physiological salt solution without the peptide (solvent) was intravenously, administrated.

rat lacrimal secretion [2] = conditions: earlier finding, no details given; cited from earlier work
PAR-2 = conditions: as disclosed in JP 2001-181208A; cited from earlier work
[3] = peptide 5 μmol/kg i.v. after amastatin 2.5 μmol/kg i.v.

Compound | lacrimal secretion promoting action (rat lacrimal secretion [1]) | other results
CC(C)C[C@H](NC(=O)[C@H](CCCNC(=N)N)NC(=O)c1ccco1)C(N)=O [2-furoyl-(L)Arg-(L)Leu-NH2, N-(2-furoyl)-L-Arg-L-Leu-NH2] | potent lacrimal secretion promoting action | duration of the lacrimal secretion promoting action compared with Ser-Leu-Ile-Gly-Arg-Leu-NH2 and Ile-Gly-Arg-Leu-NH2 (rat lacrimal secretion [1]; peptide 5 μmol/kg i.v. after amastatin 2.5 μmol/kg i.v., measured at 1, 2, 4 and 6 minutes (FIG. 5)): maintained over a longer period of time; lacrimal secretion promoting action compared with Ser-Leu-Ile-Gly-Arg-Leu-NH2 and Ile-Gly-Arg-Leu-NH2 (rat lacrimal secretion [1]; [3]): almost the same as those of Ser-Leu-Ile-Gly-Arg-Leu-NH2 and Ile-Gly-Arg-Leu-NH2
D-Arg-L-Leu-NH2 [(D) Arg-(L)Leu-NH2] | did not entirely influence on lacrimal secretion | –
D-Arg-D-Leu-NH2 [(D)Arg-(D)Leu-NH2] | did not entirely influence on lacrimal secretion | –
L-Arg-D-Leu-NH2 [(L)Arg-(D)Leu-NH2] | did not entirely influence on lacrimal secretion | –
Ile-Gly-Arg-Leu-NH2 (IGRL-NH2) [Ile-Gly-Arg-Leu-NH7] | – | lacrimal secretion promoting action (previously demonstrated) (rat lacrimal secretion [2]): previously demonstrated to have the lacrimal secretion promoting action
cyclo-L-Arg-L-Leu-NH2 [cyclo-Arg-Leu] | did not entirely influence on lacrimal secretion | –
L-Arg-L-Leu-NH2 [(L)Arg-(L)Leu-NH2] | promote lacrimal secretion | lacrimal secretion promoting action compared with Ser-Leu-Ile-Gly-Arg-Leu-NH2 and Ile-Gly-Arg-Leu-NH2 (rat lacrimal secretion [1]; [3]): lower than those of Ser-Leu-Ile-Gly-Arg-Leu-NH2 and Ile-Gly-Arg-Leu-NH2
Ser-Leu-Ile-Gly-Arg-Leu-NH2 (SLIGRL-NH2) | – | lacrimal secretion promoting action (previously demonstrated) (rat lacrimal secretion [2]): previously demonstrated to have the lacrimal secretion promoting action; activation of PAR-2 (PAR-2): activates PAR-2
